Assay [1] has as its target PDGFRβ (Homo sapiens (Human), UniProt P09619). The experiment in a line: Inhibition of PDGFRβ kinase activity (HTRF KinEASE-TK). The settings on record: biochemical. The method in brief:
(§1)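 Phosphorylation of biotinylated TK peptide read by HTRF (665/620 nm ratio) after 120 min at rt, following 1 h enzyme–compound preincubation. ATP (2× mix): 20 μM CSF1R, 16 μM c-Kit, 40 μM PDGFRβ, 1 μM PDGFRα; MgCl2 10 mM except c-Kit 5 mM. 22-point 1:2 titration; four-parameter IC50.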

Assay [2] concerns the target CSF1R (Homo sapiens (Human), UniProt P07333). The experiment in a line: Inhibition of CSF1R kinase activity (HTRF KinEASE-TK). Conditions: biochemical. The method in brief:
as §1
On the technique in general: TR-FRET usually uses a lanthanide donor and a delayed reading to cut background.

In assay [3] the target is FLT3 (Homo sapiens (Human), UniProt P36888). The experiment in a line: Inhibition of FLT3 kinase activity (HTRF KinEASE-TK). It is filed as biochemical. The settings on record: biochemical. As to the method:
Inhibition of c-Kit, PDGFRα, PDGFRβ, CSFIR and FLT3 Kinase Activity
Compounds were evaluated to determine the potency with which they inhibit the kinase activity of the following panel of tyrosine kinases: c-Kit (SignalChem, Product #: K06-11BG), PDGFRα (SignalChem, Product #: P12-18G), PDGFRβ (SignalChem, Product #: P13-11G), CSFIR (SignalChem, Product #: C74-11G) and FLT3 (Invitrogen, Product #: PR4666C). Activity was determined as a function of phosphorylated biotinylated TK peptide generated by the transfer of phosphate from ATP as measured by the use of the HTRF KinEASE-TK assay kit (Cisbio, Product #: 62TKOPEJ). Levels of phosphorylated biotinylated TK peptide (Part 61TKOBLC of KinEASE assay kit) are quantified by its capture by phosphor-TK-Antibody-Cryptate (Part of KinEASE assay kit) and XL665-labeled Streptavidin (Part 610SAXLG of KinEASE assay kit) followed by measurement of Time-Resolved Fluorescence Resonance Energy Transfer (TR-FRET) signal. On the day of the assay, compounds were solubilized in DMSO and dispensed into a 384-well white Opti-plate (PerkinElmer, catalog #6007290) to generate a 22 point 1:2 titration. Enzyme solution was prepared for each of the tyrosine kinases in 50 mM HEPES, pH 7.4, 5 mM MgCl2 for c-Kit or 10 mM MgCl2 for FLT3, CSFIR, PDGFRa and PDGFRβ, 2 mM MnCl2, 0.01% Brij-35 and 0.01% BSA. Working enzyme concentrations were prepared for c-Kit at 2 nM (2×), PDGFRa and PDGFRß at 10 nM (2×), CSFIR at 2 nM (2×) and FLT3 at 0.4 nM (2×). Five microliters of enzyme dilution of each tyrosine kinase were added to their respective 384-well white Opti-plate pre-dispensed with compound and allowed to incubate for 1 h at rt. Utilizing the same enzyme buffer recipe, 2x substrate mixes were prepared for each enzyme as follows: For c-Kit, 1.6 μM (2×) TK substrate and 16 μM (2×) ATP (Promega, catalog #V915). For PDGFRα, 3.2 μM TK substrate and 1 μM ATP. For PDGFRβ, 3.2 μM TK substrate and 40 μM ATP. For CSFIR, […] TK substrate and 20 μM ATP. For FLT3, 3.2 μM TK substrate and 100 μM ATP. Reactions were initiated by addition of 5 μL of the respective 2x substrate mix to each well of the plates containing the respective tyrosine kinase enzymes and were allowed to proceed for 120 minutes at rt, except for FLT3, the reaction time is 45 min. Following the reaction, 10 μL of detection mix consisting of 0.2 μM (2×) of Streptavidin-XL665 and 2 μM (2×) of TK-Antibody-Cryptate prepared in detection buffer (Part 62SDBRDF of KinEASE assay kit) was added and then allowed to incubate for 60 min. The TR-FRET signal was quantified by measuring the ratio of emission at 665 nm to 620 nm after excitation at 320 nm by reading on a PerkinElmer Envision multimode reader. Compound potencies (IC50 values) were determined using a standard 4-parameter non-linear regression fit.

The subject of assay [4] is Phospho-KIT (Y703) in M07e cells. Put plainly: Phospho-KIT (Y703) cellular assay in M07e cells. The settings on record: M-07e, read-out: M07e Cell IC50. The assay is classed as cell-based. The method in brief: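 Serum-starved M07e cells preincubated 50 min at 37° C with 11-point half-log compound titration, then stimulated 10 min with SCF at 90.9 ng/mL final. Fixed, permeabilized cells stained for phospho-KIT Y703 and read by flow cytometry (live-gated geometric mean); IC50 by 4-parameter fit normalized to DMSO and positive control.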

For assay [5], the target named is c-Kit (Homo sapiens (Human), UniProt P10721). The experiment in a line: Inhibition of c-Kit kinase activity (HTRF KinEASE-TK). The assay is classed as biochemical. Conditions: biochemical. An outline of the steps:
as §1

Assay [6] addresses PDGFRα (Homo sapiens (Human), UniProt P16234). Put plainly: Inhibition of PDGFRα kinase activity (HTRF KinEASE-TK). Conditions: biochemical. The method in brief: as §1
[7] abbreviates: phospho-KIT (Y703), SCF-stimulated M07e cells.

Like-named read-outs stand apart in the source and are kept apart here.

Our source for the IC50 values is US20250145606A1 (Arcus Biosciences, Inc., priority 2023, published 2025).

Chain of CSF1R (P07333 20-972): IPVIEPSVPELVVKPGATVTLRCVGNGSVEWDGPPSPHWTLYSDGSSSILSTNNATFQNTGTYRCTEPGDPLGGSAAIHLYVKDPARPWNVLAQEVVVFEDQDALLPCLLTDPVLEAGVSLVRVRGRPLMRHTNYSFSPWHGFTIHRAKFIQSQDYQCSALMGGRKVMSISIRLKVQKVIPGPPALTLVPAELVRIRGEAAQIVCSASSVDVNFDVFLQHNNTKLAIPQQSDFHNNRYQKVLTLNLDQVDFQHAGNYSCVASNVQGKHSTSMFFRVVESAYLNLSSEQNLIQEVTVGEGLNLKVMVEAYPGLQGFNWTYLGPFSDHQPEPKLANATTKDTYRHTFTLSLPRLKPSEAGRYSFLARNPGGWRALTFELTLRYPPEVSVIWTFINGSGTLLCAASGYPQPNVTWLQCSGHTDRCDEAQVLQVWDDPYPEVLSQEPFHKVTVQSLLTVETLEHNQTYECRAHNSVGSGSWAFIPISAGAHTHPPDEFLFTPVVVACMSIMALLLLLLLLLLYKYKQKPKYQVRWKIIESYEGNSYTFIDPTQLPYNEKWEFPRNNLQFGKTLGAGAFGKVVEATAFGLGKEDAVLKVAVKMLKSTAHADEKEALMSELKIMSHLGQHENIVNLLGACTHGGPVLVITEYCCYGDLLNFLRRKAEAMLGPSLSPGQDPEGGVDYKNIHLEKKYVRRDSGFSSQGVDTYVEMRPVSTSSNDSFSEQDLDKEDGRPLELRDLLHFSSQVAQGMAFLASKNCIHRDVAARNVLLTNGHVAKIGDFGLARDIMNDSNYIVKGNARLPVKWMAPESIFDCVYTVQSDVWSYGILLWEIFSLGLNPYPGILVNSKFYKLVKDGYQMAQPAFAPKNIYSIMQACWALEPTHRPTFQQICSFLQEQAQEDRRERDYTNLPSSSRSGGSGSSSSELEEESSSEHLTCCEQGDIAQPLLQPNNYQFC
Chain of FLT3 (P36888 27-993): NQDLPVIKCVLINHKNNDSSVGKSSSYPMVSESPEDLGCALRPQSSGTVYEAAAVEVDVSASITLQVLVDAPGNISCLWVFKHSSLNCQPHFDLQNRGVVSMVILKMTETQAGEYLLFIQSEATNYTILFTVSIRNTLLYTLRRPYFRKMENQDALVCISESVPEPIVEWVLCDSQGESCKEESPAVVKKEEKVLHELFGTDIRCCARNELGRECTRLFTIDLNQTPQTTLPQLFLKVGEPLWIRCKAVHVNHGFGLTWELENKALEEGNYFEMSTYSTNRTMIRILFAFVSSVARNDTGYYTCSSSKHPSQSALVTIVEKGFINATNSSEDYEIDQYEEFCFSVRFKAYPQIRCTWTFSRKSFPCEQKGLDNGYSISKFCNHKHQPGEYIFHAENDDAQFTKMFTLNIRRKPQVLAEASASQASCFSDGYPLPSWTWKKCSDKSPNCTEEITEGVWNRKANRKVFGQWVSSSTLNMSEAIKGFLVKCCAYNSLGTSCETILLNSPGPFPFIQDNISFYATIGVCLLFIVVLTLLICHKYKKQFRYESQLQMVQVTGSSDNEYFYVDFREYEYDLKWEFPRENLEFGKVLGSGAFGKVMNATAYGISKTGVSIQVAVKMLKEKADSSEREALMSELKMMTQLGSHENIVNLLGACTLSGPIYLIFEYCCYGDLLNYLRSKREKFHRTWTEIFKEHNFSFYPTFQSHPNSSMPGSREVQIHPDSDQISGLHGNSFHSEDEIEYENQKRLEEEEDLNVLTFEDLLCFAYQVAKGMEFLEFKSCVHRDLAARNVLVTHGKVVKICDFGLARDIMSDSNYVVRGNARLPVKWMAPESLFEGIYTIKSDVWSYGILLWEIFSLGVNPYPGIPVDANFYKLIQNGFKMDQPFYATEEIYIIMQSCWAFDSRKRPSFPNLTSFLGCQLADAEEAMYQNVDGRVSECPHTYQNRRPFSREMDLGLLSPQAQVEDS
Chain of c-Kit (P10721 26-976): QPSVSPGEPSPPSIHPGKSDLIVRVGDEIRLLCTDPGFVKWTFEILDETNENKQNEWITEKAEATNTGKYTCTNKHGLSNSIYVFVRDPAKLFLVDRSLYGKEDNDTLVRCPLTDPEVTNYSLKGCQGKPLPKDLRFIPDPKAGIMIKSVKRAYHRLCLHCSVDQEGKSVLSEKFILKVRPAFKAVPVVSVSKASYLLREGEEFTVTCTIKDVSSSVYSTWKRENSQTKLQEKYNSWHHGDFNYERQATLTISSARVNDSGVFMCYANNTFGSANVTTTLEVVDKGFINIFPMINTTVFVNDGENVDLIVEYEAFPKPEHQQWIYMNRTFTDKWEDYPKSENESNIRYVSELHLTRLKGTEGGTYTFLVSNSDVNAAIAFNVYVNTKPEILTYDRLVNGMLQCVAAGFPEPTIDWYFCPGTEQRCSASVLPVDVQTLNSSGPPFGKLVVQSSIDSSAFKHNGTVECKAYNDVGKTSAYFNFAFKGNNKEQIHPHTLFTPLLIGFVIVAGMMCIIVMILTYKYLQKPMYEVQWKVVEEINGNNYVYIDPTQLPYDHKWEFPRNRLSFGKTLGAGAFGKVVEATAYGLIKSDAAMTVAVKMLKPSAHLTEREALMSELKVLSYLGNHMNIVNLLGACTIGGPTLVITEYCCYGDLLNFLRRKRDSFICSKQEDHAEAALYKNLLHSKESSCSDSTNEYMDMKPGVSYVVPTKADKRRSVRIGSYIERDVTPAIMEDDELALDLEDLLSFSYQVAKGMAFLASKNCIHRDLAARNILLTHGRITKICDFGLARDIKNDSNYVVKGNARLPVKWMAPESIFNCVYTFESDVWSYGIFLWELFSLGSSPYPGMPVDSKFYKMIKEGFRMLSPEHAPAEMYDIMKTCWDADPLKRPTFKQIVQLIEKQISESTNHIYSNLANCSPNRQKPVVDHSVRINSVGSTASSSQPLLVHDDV
Chain of PDGFRβ (P09619 33-1106): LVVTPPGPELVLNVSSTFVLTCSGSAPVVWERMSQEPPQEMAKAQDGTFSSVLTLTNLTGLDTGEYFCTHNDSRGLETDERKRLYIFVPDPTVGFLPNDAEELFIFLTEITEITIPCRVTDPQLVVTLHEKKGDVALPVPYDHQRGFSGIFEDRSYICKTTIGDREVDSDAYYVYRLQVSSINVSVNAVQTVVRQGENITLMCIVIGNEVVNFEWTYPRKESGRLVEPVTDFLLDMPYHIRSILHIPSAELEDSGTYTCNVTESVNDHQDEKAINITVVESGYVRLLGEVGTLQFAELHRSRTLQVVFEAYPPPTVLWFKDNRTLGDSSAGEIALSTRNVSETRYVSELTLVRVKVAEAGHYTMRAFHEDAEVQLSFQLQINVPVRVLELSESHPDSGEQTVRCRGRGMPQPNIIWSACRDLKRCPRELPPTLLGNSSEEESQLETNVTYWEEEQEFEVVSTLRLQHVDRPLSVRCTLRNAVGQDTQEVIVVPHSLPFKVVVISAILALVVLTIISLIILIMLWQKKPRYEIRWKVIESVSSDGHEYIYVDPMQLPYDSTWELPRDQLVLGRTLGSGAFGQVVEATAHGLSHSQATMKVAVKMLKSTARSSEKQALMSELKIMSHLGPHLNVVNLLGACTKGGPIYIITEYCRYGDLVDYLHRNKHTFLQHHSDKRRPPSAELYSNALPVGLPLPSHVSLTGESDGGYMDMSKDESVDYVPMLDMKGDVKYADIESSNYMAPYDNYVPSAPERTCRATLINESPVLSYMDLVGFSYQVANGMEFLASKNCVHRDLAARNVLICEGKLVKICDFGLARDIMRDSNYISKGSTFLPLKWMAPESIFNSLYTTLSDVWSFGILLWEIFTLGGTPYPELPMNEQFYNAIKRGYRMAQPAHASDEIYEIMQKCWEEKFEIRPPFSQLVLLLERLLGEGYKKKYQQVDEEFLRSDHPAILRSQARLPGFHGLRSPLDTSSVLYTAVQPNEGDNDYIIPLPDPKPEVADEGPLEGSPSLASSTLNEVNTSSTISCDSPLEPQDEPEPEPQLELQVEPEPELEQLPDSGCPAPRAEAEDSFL
Chain of PDGFRα (P16234 24-1089): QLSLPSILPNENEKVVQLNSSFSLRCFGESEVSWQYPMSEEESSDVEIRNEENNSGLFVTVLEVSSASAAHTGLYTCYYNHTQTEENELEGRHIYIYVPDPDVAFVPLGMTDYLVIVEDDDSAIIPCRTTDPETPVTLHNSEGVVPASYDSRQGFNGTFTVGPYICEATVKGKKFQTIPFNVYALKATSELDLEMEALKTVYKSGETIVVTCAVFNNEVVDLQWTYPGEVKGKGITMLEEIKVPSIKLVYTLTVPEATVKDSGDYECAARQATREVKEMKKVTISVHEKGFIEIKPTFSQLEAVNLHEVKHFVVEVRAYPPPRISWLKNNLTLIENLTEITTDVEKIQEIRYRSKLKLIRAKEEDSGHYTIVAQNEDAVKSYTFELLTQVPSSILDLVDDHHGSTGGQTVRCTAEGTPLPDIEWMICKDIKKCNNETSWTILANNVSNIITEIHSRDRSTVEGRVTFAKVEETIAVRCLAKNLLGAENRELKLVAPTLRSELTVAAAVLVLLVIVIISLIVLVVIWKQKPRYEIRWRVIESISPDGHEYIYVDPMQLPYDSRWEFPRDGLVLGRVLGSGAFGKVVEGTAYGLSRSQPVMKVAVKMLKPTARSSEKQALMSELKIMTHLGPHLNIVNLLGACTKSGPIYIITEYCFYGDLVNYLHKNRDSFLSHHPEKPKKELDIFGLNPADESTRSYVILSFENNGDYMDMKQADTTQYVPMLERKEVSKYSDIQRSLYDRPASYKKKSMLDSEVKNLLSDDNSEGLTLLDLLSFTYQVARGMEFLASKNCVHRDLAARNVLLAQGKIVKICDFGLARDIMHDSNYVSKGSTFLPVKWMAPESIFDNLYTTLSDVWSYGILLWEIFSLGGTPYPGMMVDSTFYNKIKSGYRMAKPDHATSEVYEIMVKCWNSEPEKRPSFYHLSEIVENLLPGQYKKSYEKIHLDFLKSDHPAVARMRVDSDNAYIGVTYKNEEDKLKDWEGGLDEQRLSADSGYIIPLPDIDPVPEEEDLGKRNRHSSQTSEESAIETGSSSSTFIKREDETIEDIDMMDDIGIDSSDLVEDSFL

Turning to `Cc1cc(F)c(C(=O)Nc2ccc(CC3CC3)cn2)cc1NC(=O)c1cnc(N)s1` [Example 7, 2-Amino-N-[5-[[5-(cyclopropylmethyl)pyridin-2-yl]carbamoyl]-4-fluoro-2-methylphenyl]-1,3-thiazole-5-carboxamide], the IC50 in assay [1] was < 100 nM; in assay [2], 100 to 1000 nM; in assay [3] it was > 1000 nM; in assay [4] (setting [7]), < 100 nM; in assay [5] it was < 100 nM; in assay [6], 100 to 1000 nM.
Consider `Cc1cc(F)c(C(=O)Nc2ccc(OC(F)(F)F)cn2)cc1NC(=O)c1cnc(N)s1` [Example 8, 2-Amino-N-[4-fluoro-2-methyl-5-[[5-(trifluoromethoxy)pyridin-2-yl]carbamoyl]phenyl]-1,3-thiazole-5-carboxamide], for which the IC50 in assay [1] was 100 to 1000 nM; in assay [2], 100 to 1000 nM; in assay [3] it was > 1000 nM; in assay [4] (setting [7]), < 100 nM; in assay [5] it was < 100 nM; in assay [6], 100 to 1000 nM.
On to `Cc1ncc(C(=O)Nc2cc(C(=O)Nc3cnc(OC4CC4)cn3)c(F)cc2C)s1` [Example 13, N-[5-[(5-Cyclopropyloxypyrazin-2-yl)carbamoyl]-4-fluoro-2-methylphenyl]-2-methyl-1,3-thiazole-5-carboxamide], for which the IC50 in assay [2] (HTRF KinEASE-TK) is > 1000 nM; in assay [3] (HTRF KinEASE-TK), > 1000 nM; in assay [4] (Phospho-KIT (Y703), M07e cells), < 100 nM; in assay [5] (HTRF KinEASE-TK), < 100 nM.
Take `Cc1ncc(C(=O)Nc2cc(C(=O)Nc3ccc(C4CC4)nc3)c(F)cc2C)s1` [Example 24, N-[5-[(6-Cyclopropylpyridin-3-yl)carbamoyl]-4-fluoro-2-methylphenyl]-2-methyl-1,3-thiazole-5-carboxamide]: the IC50 was > 1000 nM in assay [2] (HTRF KinEASE-TK); > 1000 nM in assay [3] (HTRF KinEASE-TK); < 100 nM in assay [4] (Phospho-KIT (Y703), M07e cells); < 100 nM in assay [5] (HTRF KinEASE-TK).
For the compound `Cc1ncc(C(=O)Nc2cc(C(=O)Nc3cnc(OC(F)(F)F)cn3)c(F)cc2C)s1` [Example 87, N-[5-(N-5-trifluoromethoxy-2-pyrazinylcarbamoyl)-4-fluoro-2-tolyl]-2-methyl-1,3-thiazole-5-carboxamide], the IC50 in assay [2] (HTRF KinEASE-TK) was > 1000 nM; in assay [3] (HTRF KinEASE-TK), > 1000 nM; in assay [4] (Phospho-KIT (Y703), M07e cells), < 100 nM; in assay [5] (HTRF KinEASE-TK), < 100 nM.
For the compound `Cc1ncc(C(=O)Nc2cc(C(=O)Nc3cnc(CC4CC4)cn3)c(F)cc2C)s1` [Example 91, N-{5-[N-5-(cyclopropylmethyl)-2-pyrazinylcarbamoyl]-4-fluoro-2-tolyl}-2-methyl-1,3-thiazole-5-carboxamide], the IC50 was > 1000 nM in assay [2] (HTRF KinEASE-TK); > 1000 nM in assay [3] (HTRF KinEASE-TK); < 100 nM in assay [4] (Phospho-KIT (Y703), M07e cells); < 100 nM in assay [5] (HTRF KinEASE-TK).
Take `Cc1cc(F)c(C(=O)NCC2(F)CCC2)cc1NC(=O)c1cnc(NC(=O)N2CCC2)s1` [Example 104, 2-(Azetidine-1-carbonylamino)-N-[4-fluoro-5-[(1-fluorocyclobutyl)methylcarbamoyl]-2-methylphenyl]-1,3-thiazole-5-carboxamide]: the half-maximal inhibitory concentration (IC50) was 100 to 1000 nM in assay [2] (HTRF KinEASE-TK); > 1000 nM in assay [3] (HTRF KinEASE-TK); < 100 nM in assay [4] (Phospho-KIT (Y703), M07e cells); < 100 nM in assay [5] (HTRF KinEASE-TK).
For the compound `COCCn1ccc(NC(=O)c2cc(NC(=O)c3cnc(N)s3)c(C)cc2F)n1` [Example 154, 2-Amino-N-[4-fluoro-5-[[1-(2-methoxyethyl)pyrazol-3-yl]carbamoyl]-2-methylphenyl]-1,3-thiazole-5-carboxamide], the IC50 in assay [1] (HTRF KinEASE-TK) was > 1000 nM; in assay [3] (HTRF KinEASE-TK), > 1000 nM; in assay [4] (Phospho-KIT (Y703), M07e cells) it was < 100 nM; in assay [5] (HTRF KinEASE-TK) it was < 100 nM; in assay [6] (HTRF KinEASE-TK), > 1000 nM.
Regarding `Cc1cc(F)c(C(=O)Nc2ccn(-c3ccccn3)n2)cc1NC(=O)c1cnc(N)s1` [Example 168, 2-Amino-N-[4-fluoro-2-methyl-5-[(1-pyridin-2-ylpyrazol-3-yl)carbamoyl]phenyl]-1,3-thiazole-5-carboxamide], the IC50 in assay [1] (HTRF KinEASE-TK) was > 1000 nM; in assay [2] (HTRF KinEASE-TK) it was > 1000 nM; in assay [3] (HTRF KinEASE-TK) it was > 1000 nM; in assay [4] (Phospho-KIT (Y703), M07e cells) it was < 100 nM; in assay [5] (HTRF KinEASE-TK), < 100 nM.
As to `Cc1cc(F)c(C(=O)NCC2(F)CC2)cc1NC(=O)c1cnc(N)s1` [Example 193, 2-Amino-N-[4-fluoro-5-[(1-fluorocyclopropyl)methylcarbamoyl]-2-methylphenyl]-1,3-thiazole-5-carboxamide], the IC50 in assay [2] (HTRF KinEASE-TK) is > 1000 nM; in assay [3] (HTRF KinEASE-TK), > 1000 nM; in assay [4] (Phospho-KIT (Y703), M07e cells) it was < 100 nM; in assay [5] (HTRF KinEASE-TK), < 100 nM.
As for `Nc1ncc(C(=O)Nc2cc(C(=O)Nc3ccc(OC4CC4)cn3)c(F)cc2F)s1` [Example 222, 2-Amino-N-[5-[(5-cyclopropyloxypyridin-2-yl)carbamoyl]-2,4-difluorophenyl]-1,3-thiazole-5-carboxamide], the IC50 is > 1000 nM in assay [1] (HTRF KinEASE-TK); > 1000 nM in assay [3] (HTRF KinEASE-TK); < 100 nM in assay [4] (Phospho-KIT (Y703), M07e cells); < 100 nM in assay [5] (HTRF KinEASE-TK); > 1000 nM in assay [6] (HTRF KinEASE-TK).
Consider `Cc1cc(F)c(C(=O)Nc2ccc(OC(F)F)cc2)cc1NC(=O)c1cnc(N)s1` [Example 227, 2-Amino-N-[5-[[4-(difluoromethoxy)phenyl]carbamoyl]-4-fluoro-2-methylphenyl]-1,3-thiazole-5-carboxamide], for which the half-inhibitory concentration (IC50) in assay [1] (HTRF KinEASE-TK) is < 100 nM; in assay [2] (HTRF KinEASE-TK), < 100 nM; in assay [3] (HTRF KinEASE-TK), > 1000 nM; in assay [5] (HTRF KinEASE-TK) it was < 100 nM; in assay [6] (HTRF KinEASE-TK) it was < 100 nM.
`Nc1ncc(C(=O)Nc2cc(C(=O)Nc3ccc(OC4CC4)cn3)c(F)cc2Br)s1` [Example 236, 2-Amino-N-[2-bromo-5-[(5-cyclopropyloxypyridin-2-yl)carbamoyl]-4-fluorophenyl]-1,3-thiazole-5-carboxamide]: the IC50 in assay [1] (HTRF KinEASE-TK) is 100 to 1000 nM; in assay [2] (HTRF KinEASE-TK) it was 100 to 1000 nM; in assay [3] (HTRF KinEASE-TK), > 1000 nM; in assay [5] (HTRF KinEASE-TK), < 100 nM; in assay [6] (HTRF KinEASE-TK), > 1000 nM.
`Cc1cc(F)c(C(=O)Nc2ccc(OC3CC3)cn2)cc1NC(=O)c1cnc(NC(=O)C(F)(F)F)s1` [Example 239, N-[5-[(5-cyclopropyloxypyridin-2-yl)carbamoyl]-4-fluoro-2-methylphenyl]-2-[(2,2,2-trifluoroacetyl)amino]-1,3-thiazole-5-carboxamide]: the IC50 is 100 to 1000 nM in assay [1] (HTRF KinEASE-TK); > 1000 nM in assay [2] (HTRF KinEASE-TK); > 1000 nM in assay [3] (HTRF KinEASE-TK); < 100 nM in assay [5] (HTRF KinEASE-TK); > 1000 nM in assay [6] (HTRF KinEASE-TK).
As for `CC(=O)Nc1ncc(C(=O)Nc2cc(C(=O)Nc3ccc(OC4CC4)cn3)c(F)cc2C)s1` [Example 240, 2-Acetamido-N-[5-[(5-cyclopropyloxypyridin-2-yl)carbamoyl]-4-fluoro-2-methylphenyl]-1,3-thiazole-5-carboxamide], the IC50 in assay [1] (HTRF KinEASE-TK) was < 100 nM; in assay [2] (HTRF KinEASE-TK) it was > 1000 nM; in assay [3] (HTRF KinEASE-TK), > 1000 nM; in assay [5] (HTRF KinEASE-TK) it was < 100 nM; in assay [6] (HTRF KinEASE-TK), > 1000 nM.

Usually IC50 stands for the concentration at which inhibition is half-maximal.
